According to patent US11535621B2, “Heterobicyclic amides as inhibitors of CD38” (Ribon Therapeutics, Inc., priority 2019, dated 2022):

Biological target: Human CD38 (Homo sapiens (Human), UniProt P28907)
Assay: CD38 enzyme assay
Assay type: biochemical
Conditions: 2 nM CD38, NAD+ substrate, absorbance at 405 nm
Summary of the method: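 IC50 values come from fitting % inhibition against compound concentration with a 4-parameter logistic, or a 3-parameter fit with top/bottom fixed at 100/0 or Hill at 1. Inhibition is scaled between DMSO wells and positive-control wells treated with a quinolinone CD38 inhibitor.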

Chain of Human CD38 (P28907 whole entry): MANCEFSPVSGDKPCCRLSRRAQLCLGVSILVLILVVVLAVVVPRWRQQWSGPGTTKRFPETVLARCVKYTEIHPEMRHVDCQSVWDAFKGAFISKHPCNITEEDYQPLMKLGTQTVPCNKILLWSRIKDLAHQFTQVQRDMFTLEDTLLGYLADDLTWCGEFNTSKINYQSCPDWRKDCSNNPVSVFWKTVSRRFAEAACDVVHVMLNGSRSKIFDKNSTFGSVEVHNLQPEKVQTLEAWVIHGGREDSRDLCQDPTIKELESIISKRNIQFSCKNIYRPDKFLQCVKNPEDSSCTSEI

SMILES	IC50 [nM]
COCCO[C@H]1CC[C@H](NC(=O)c2nc(-n3ccnc3)nc3cn[nH]c23)CC1 [Example 23, 5-(1H-Imidazol-1-yl)-N-((1r,4r)-4-(2-methoxyethoxy)cyclohexyl)-1H-pyrazolo[4,3-d]pyrimidine-7-carboxamide]	10 to 100
O=C(NCc1c(F)cccc1C(F)(F)F)c1nc(-c2cncs2)nc2cc[nH]c12 [Example 43, N-(2-Fluoro-6-(trifluoromethyl)benzyl)-2-(thiazol-5-yl)-5H-pyrrolo[3,2-d]pyrimidine-4-carboxamide]	100 to 1000
COCCO[C@H]1CC[C@H](NC(=O)c2cc(-n3ccnc3)nc3cc[nH]c23)CC1 [Example 10, 5-(1H-imidazol-1-yl)-N-((1r,4r)-4-(2-methoxyethoxy)cyclohexyl)-1H-pyrrolo[3,2-b]pyridine-7-carboxamide]	10 to 100
O=C(NCc1ccccc1)c1nc(-n2ccnc2)nc2cc[nH]c12 [Example 79, N-Benzyl-2-(1H-imidazol-1-yl)-5H-pyrrolo[3,2-d]pyrimidine-4-carboxamide]	100 to 1000
O=C(NCc1c(F)cccc1C(F)(F)F)c1cc(-c2cncs2)cc2cc[nH]c12 [Example 31, N-(2-Fluoro-6-(trifluoromethyl)benzyl)-5-(thiazol-5-yl)-1H-indole-7-carboxamide]	10 to 100
O=C(Nc1cn[nH]c1)c1nc(-n2ccnc2)nc2cc[nH]c12 [Example 98, 2-(1H-Imidazol-1-yl)-N-(1H-pyrazol-4-yl)-5H-pyrrolo[3,2-d]pyrimidine-4-carboxamide]	< 10
O=C(NCc1c(F)cccc1C(F)(F)F)c1nc(-n2ccnc2)nc2nc[nH]c12 [Example 46, N-(2-Fluoro-6-(trifluoromethyl)benzyl)-2-(1H-imidazol-1-yl)-7H-purine-6-carboxamide]	10 to 100
O=C(NC1CCOCC1)c1nc(-n2ccnc2)nc2cc[nH]c12 [Example 62, 2-(1H-Imidazol-1-yl)-N-(tetrahydro-2H-pyran-4-yl)-5H-pyrrolo[3,2-d]pyrimidine-4-carboxamide]	10 to 100
O=C(NCc1c(F)cccc1C(F)(F)F)c1nc(-n2ccnc2)nc2cc[nH]c12 [Example 51, N-(2-Fluoro-6-(trifluoromethyl)benzyl)-2-(1H-imidazol-1-yl)-5H-pyrrolo[3,2-d]pyrimidine-4-carboxamide]	10 to 100
O=C(NCc1c(F)cccc1C(F)(F)F)c1nc(-n2ccnc2)cc2cn[nH]c12 [Example 48, N-(2-Fluoro-6-(trifluoromethyl)benzyl)-5-(1H-imidazol-1-yl)-1H-pyrazolo[3,4-c]pyridine-7-carboxamide]	10 to 100
CN(CC(F)(F)F)[C@H]1CC[C@H](NC(=O)c2nc(-n3ccnc3)nc3cc[nH]c23)CC1 [Example 112, 2-(1H-imidazol-1-yl)-N-((1r,4r)-4-(methyl(2,2,2-trifluoroethyl)amino)cyclohexyl)-5H-pyrrolo[3,2-d]pyrimidine-4-carboxamide]	10 to 100
COCCO[C@H]1CC[C@H](NC(=O)c2nc(-n3ccnc3)cc3cc[nH]c23)CC1 [Example 12, 5-(1H-Imidazol-1-yl)-N-((1r,4r)-4-(2-methoxyethoxy)cyclohexyl)-1H-pyrrolo[2,3-c]pyridine-7-carboxamide]	10 to 100
CS(=O)(=O)N1CCC(NC(=O)c2nc(-n3ccnc3)nc3cc[nH]c23)CC1 [Example 75, 2-(1H-Imidazol-1-yl)-N-(1-(methylsulfonyl)piperidin-4-yl)-5H-pyrrolo[3,2-d]pyrimidine-4-carboxamide]	< 10
O=C(N[C@H]1CC[C@@H](NCC(F)(F)F)CC1)c1nc(-n2ccnc2)nc2cc[nH]c12 [Example 102, 2-(1H-imidazol-1-yl)-N-((1s,4s)-4-((2,2,2-trifluoroethyl)amino)cyclohexyl)-5H-pyrrolo[3,2-d]pyrimidine-4-carboxamide]	10 to 100
O=C(NC1CCC1)c1nc(-n2ccnc2)nc2cc[nH]c12 [Example 77, N-Cyclobutyl-2-(1H-imidazol-1-yl)-5H-pyrrolo[3,2-d]pyrimidine-4-carboxamide]	< 10
O=C(N[C@H]1CC[C@H](NCC(F)F)CC1)c1nc(-n2ccnc2)nc2cc[nH]c12 [Example 105, N-((1r,4r)-4-((2,2-difluoroethyl)amino)cyclohexyl)-2-(1H-imidazol-1-yl)-5H-pyrrolo[3,2-d]pyrimidine-4-carboxamide]	10 to 100
CC(=O)N1CCC(NC(=O)c2nc(-n3ccnc3)nc3cc[nH]c23)CC1 [Example 64, N-(1-Acetylpiperidin-4-yl)-2-(1H-imidazol-1-yl)-5H-pyrrolo[3,2-d]pyrimidine-4-carboxamide]	10 to 100
COCCO[C@H]1CC[C@H](NC(=O)c2cc(-n3ccnc3)c(F)c3cc[nH]c23)CC1 [Example 29, 4-Fluoro-5-(1H-imidazol-1-yl)-N-((1r,4r)-4-(2-methoxyethoxy)cyclohexyl)-1H-indole-7-carboxamide]	100 to 1000

Other lines, results leading:

IC50 [nM]	SMILES
< 10	N#Cc1ccc(NC(=O)c2nc(-n3ccnc3)cc3cn[nH]c23)cc1 [Example 205, N-(4-cyanophenyl)-5-(1H-imidazol-1-yl)-1H-pyrazolo[3,4-c]pyridine-7-carboxamide]
10 to 100	C[C@@](O)(C(=O)N[C@H]1CC[C@H](NC(=O)c2nc(-n3ccnc3)nc3cc[nH]c23)CC1)C(F)(F)F (single isomer, unassigned) [Example 127a]
10 to 100	COCCO[C@H]1CCC[C@H](NC(=O)c2nc(-n3ccnc3)nc3cc[nH]c23)C1 [Example 124a, 2-(1H-imidazol-1-yl)-N-((1S,3S)-3-(2-methoxyethoxy)cyclohexyl)-5H-pyrrolo[3,2-d]pyrimidine-4-carboxamide]
< 10	O=C(Nc1ccncc1)c1nc(-n2ccnc2)nc2cc[nH]c12 [Example 138]
10 to 100	O=C(N[C@H]1CC[C@@H](C(F)(F)F)CC1)c1nc(-n2ccnc2)nc2cn[nH]c12 [Example 161]
10 to 100	CNC(=O)[C@H]1CC[C@H](NC(=O)c2nc(-n3ccnc3)nc3cc[nH]c23)CC1 [Example 170]
10 to 100	CC(C)(N[C@H]1CC[C@H](NC(=O)c2nc(-n3ccnc3)nc3cc[nH]c23)CC1)C(F)(F)F [Example 272, 2-(1H-imidazol-1-yl)-N-((1r,4r)-4-((1,1,1-trifluoro-2-methylpropan-2-yl)amino)cyclohexyl)-5H-pyrrolo[3,2-d]pyrimidine-4-carboxamide]
10 to 100	O=C(N[C@H]1CC[C@H](OC(F)(F)F)CC1)c1nc(-n2ccnc2)nc2cc[nH]c12 [Example 167]
< 10	C[C@]1(O)CC[C@@H](NC(=O)c2nc(-n3ccnc3)nc3cc[nH]c23)CC1 [Example 175]
10 to 100	C[C@]1(O)CC[C@@H](NC(=O)c2nc(-n3ccnc3)cc3cn[nH]c23)CC1 [Example 226, N-((1s,4s)-4-hydroxy-4-methylcyclohexyl)-5-(1H-imidazol-1-yl)-1H-pyrazolo[3,4-c]pyridine-7-carboxamide]
< 10	O=C(Nc1ccc(Cl)cn1)c1nc(-n2ccnc2)nc2cc[nH]c12 [Example 134]
< 10	Cc1cc2nc(-n3ccnc3)nc(C(=O)N[C@H]3CC[C@H](C(C)(C)O)CC3)c2[nH]1 [Example 184]
10 to 100	CN(CC(F)(F)F)[C@H]1CC[C@H](NC(=O)c2nc(-n3ccnc3)nc3cn[nH]c23)CC1 [Example 248, 5-(1H-imidazol-1-yl)-N-((1r,4r)-4-(methyl(2,2,2-trifluoroethyl)amino)cyclohexyl)-1H-pyrazolo[4,3-d]pyrimidine-7-carboxamide]
10 to 100	O=C(N[C@H]1CC[C@H](NCC(F)F)CC1)c1nc(-n2ccnc2)cc2cn[nH]c12 [Example 195, N-((1r,4r)-4-((2,2-difluoroethyl)amino)cyclohexyl)-5-(1H-imidazol-1-yl)-1H-pyrazolo[3,4-c]pyridine-7-carboxamide]
< 10	CNC(=O)[C@H]1CC[C@H](NC(=O)c2nc(-n3ccnc3)cc3cn[nH]c23)CC1 [Example 217, 5-(1H-imidazol-1-yl)-N-((1r,4r)-4-(methylcarbamoyl)cyclohexyl)-1H-pyrazolo[3,4-c]pyridine-7-carboxamide]
10 to 100	O=C(N[C@H]1CC[C@H](N2CC(F)(F)C2)CC1)c1nc(-n2ccnc2)nc2cn[nH]c12 [Example 255, N-((1r,4r)-4-(3,3-difluoroazetidin-1-yl)cyclohexyl)-5-(1H-imidazol-1-yl)-1H-pyrazolo[4,3-d]pyrimidine-7-carboxamide]
< 10	O=C(Nc1ccc(N2CCNCC2)nc1)c1nc(-n2ccnc2)cc2cn[nH]c12 [Example 224, 5-(1H-imidazol-1-yl)-N-(6-(piperazin-1-yl)pyridin-3-yl)-1H-pyrazolo[3,4-c]pyridine-7-carboxamide]
10 to 100	COCCN1CCc2ccc(NC(=O)c3nc(-n4ccnc4)nc4cc[nH]c34)cc2C1 [Example 163]
< 10	O=C(Nc1ccnc(Cl)c1)c1nc(-n2ccnc2)nc2cc[nH]c12 [Example 140]
10 to 100	CC(=O)NC[C@H]1CC[C@H](NC(=O)c2nc(-n3ccnc3)nc3cn[nH]c23)CC1 [Example 243, N-((1r,4r)-4-(acetamidomethyl)cyclohexyl)-5-(1H-imidazol-1-yl)-1H-pyrazolo[4,3-d]pyrimidine-7-carboxamide]
< 10	O=C(NC1CCC(F)(F)CC1)c1nc(-n2ccnc2)nc2cn[nH]c12 [Example 159]
10 to 100	CS(=O)(=O)[C@H]1CC[C@H](NC(=O)c2nc(-n3ccnc3)nc3cc[nH]c23)CC1 [Example 213, 2-(1H-imidazol-1-yl)-N-((1r,4r)-4-(methylsulfonyl)cyclohexyl)-5H-pyrrolo[3,2-d]pyrimidine-4-carboxamide]
10 to 100	O=C(NCCC1CCC(F)(F)CC1)c1nc(-n2ccnc2)nc2cc[nH]c12 [Example 157]
< 10	O=C(N[C@H]1CC[C@H](CO)CC1)c1nc(-n2ccnc2)cc2cn[nH]c12 [Example 225, N-((1r,4r)-4-(hydroxymethyl)cyclohexyl)-5-(1H-imidazol-1-yl)-1H-pyrazolo[3,4-c]pyridine-7-carboxamide]
